Data from patent US8513161B2, “Enhancement of plant growth” (Valent Biosciences Corporation, priority 2007, dated 2013).
Structures can show the parent of a compound that is named as a salt.

Assays:
[1] = test system: cotton; assay: Continuous exposure pouch study, PESA salt and clothianidin on cotton; type: in vivo; settings: for shoot length of cotton / root length of cotton: in pouch; for shoot length of cotton: control 6.1; for root length of cotton: control 11.4
Procedure: (§1) Seeds were placed in germination pouches consisting of germination paper hydrated with sterile water that was an insert in a gas-permeable 16×14 cm plastic pouch (CYG Pouch; Mega International, St. Paul, Minn.). In these examples, in pouch solution evaluation, clothianidin and PESA sodium salt were added to the sterile water in the pouch. Alternatively, imidacloprid or dinotefuran and PESA sodium salt were added to the sterile water in the pouch. The pouches were arranged in a completely randomized block design in growth racks and placed in 19-liter polycarbonate food storage containers (Rubbermaid Commercial Products, Winchester, Va.). The sealed containers were held in an upright growth cabinet maintained at 25 C with a 12 hour light: 12 hour dark photoperiod. After 6 days, the containers were removed from the growth cabinet, and the lengths of the roots and shoot were measured.

[2] = test system: canola; assay: Field study, seed treatment of canola; type: in vivo, Brassica napus; settings: for vigor rating (1 = low and 5 = high) of canola plants: 19 days after planting, control 3.8
Procedure: (§2) For the field studies, the seed was treated with a seed treatment formulation containing clothianidin. The rate of clothianidin was dependent on the crop species. The seed treatment formulations were amended with the appropriate concentrations of either PESA or the sodium salt of PESA. Crops were planted and grown under standard agricultural practices, and evaluated at the times indicated. The sodium salt of PESA was prepared as described above, and was used in seed treatment either alone or in the presence of clothianidin. Canola (Brassica napus) seed was treated with 0 or 400 grams of clothianidin/100 kg (220 pound) of seed and with 0, 22, 55, or 137.5 grams PESA salt/100 kg seed.

[3] = test system: rice; assay: Pouch study of rice, imidacloprid seed treatment with PESA salt solution in pouch; type: in vivo
Procedure: Seed was sieved with a screen of hole size appropriate to remove broken seeds and small trash. Cracked or otherwise damaged seeds were removed. The seed was well mixed, and 50 g samples were weighed into small plastic trays. Seed treatment slurries were made by adding measured amounts of the active ingredients to sufficient water to bring them up to a standard volume, typically 2 ml. A fungicide (Maxim XL; Syngenta Agricultural Products, Greensboro, N.C.), a polymeric binder (CF-Clear; Becker-Underwood, Ames, Iowa), and a colorant (Color Coat Red; Becker-Underwood, Ames, Iowa) were also included in the slurry at label rates. A small aliquot of this slurry was applied to the seed using the Hege 11 coater (Wintersteiger, Salt Lake City, Utah) with a six-inch bowl. The slurry was deposited drop-wise on the spinning disk atomizer using a syringe.
as §1
Root lengths of the control and combination treatment of 200 grams imidacloprid/100 pounds of seed with 50 mg/liter PESA salt were similar.

[4] = test system: cotton; assay: Continuous exposure pouch study, PESA salt and imidacloprid on cotton; type: in vivo; settings: for shoot length of cotton / root length of cotton: in pouch; for shoot length of cotton: control 6.2; for root length of cotton: control 13.3
Procedure: as §1, with “measured. […] Root lengths of the control and combination treatment of imidacloprid with 100 mg/liter PESA salt were similar.” for “measured.”

[5] = test system: soybean; assay: Field study, seed treatment of soybean; type: in vivo; settings: for average plant height of soybean: 66 days after planting, control 23.8
Procedure: as §2, with “Soybean” for “Canola (Brassica napus)”, “50” for “400”

[6] = test system: sorghum; assay: Field study, seed treatment of sorghum; type: in vivo; settings: for root dry weight of a sample of 10 sorghum plants: 73 days after planting, control 148.5
Procedure: as §2, with “Sorghum” for “Canola (Brassica napus)”, “200” for “400”

[7] = test system: maize; assay: Field study, seed treatment of maize; type: in vivo, Zea mays; settings: 27 days after planting, control 3.6
Procedure: For the field studies, the seed was treated with a seed treatment formulation containing clothianidin. The rate of clothianidin was dependent on the crop species. The seed treatment formulations were amended with the appropriate concentrations of either PESA or the sodium salt of PESA. Crops were planted and grown under standard agricultural practices, and evaluated at the times indicated. The PESA or the sodium salt of PESA was prepared as described above, and was used in seed treatment either alone or in the presence of clothianidin. Maize (Zea mays) seed was treated with 0 or 0.25 milligrams of clothianidin/seed and with 0, 22, 55, or 137.5 grams PESA salt/100 kg seed.

[8] = sodium salt of PESA 22 g/100 kg seed alone
[9] = sodium salt of PESA 55 g/100 kg seed alone
[10] = sodium salt of PESA 137.5 g/100 kg seed alone

**Q.** Which results are given for `O=C(O)CCC(=O)NCCc1ccccc1` [PESA salt]?
**A.** safening of cotton ([1]; continuous exposure pouch, conclusion from Table 3): safened cotton against clothianidin-induced root growth inhibition; effect on cotton root length ([1]; continuous exposure pouch, substance alone): increased root length in a dose-dependent manner; effect on cotton shoot length ([1]; continuous exposure pouch, 300 mg/liter PESA salt alone): reduced; shoot length of cotton ([1]; PESA salt 10 mg/liter alone): 6.3 cm; root length of cotton ([1]; PESA salt 10 mg/liter alone): 14.2 cm; shoot length of cotton ([1]; PESA salt 30 mg/liter alone): 6.1 cm; root length of cotton ([1]; PESA salt 30 mg/liter alone): 15.3 cm; shoot length of cotton ([1]; PESA salt 100 mg/liter alone): 6.0 cm; root length of cotton ([1]; PESA salt 100 mg/liter alone): 16.2 cm; shoot length of cotton ([1]; PESA salt 300 mg/liter alone): 5.4 cm; vigor rating (1 = low and 5 = high) of canola plants [2, 8]: 3.8; vigor rating (1 = low and 5 = high) of canola plants [2, 9]: 4; vigor rating (1 = low and 5 = high) of canola plants [2, 10]: 4; safening of canola ([2]; conclusion from Table 11): safened canola against clothianidin-induced vigor reduction; shoot length of rice ([3]; PESA salt 50 mg/liter in pouch alone, control 3.3): 3.6 cm; root length of rice ([3]; PESA salt 50 mg/liter in pouch alone, control 10.7): 12.0 cm; safening of rice ([3]; conclusion from Table 7): safened, rice against imidacloprid-induced root growth inhibition; safening of cotton ([4]; conclusion from Table 5): safened cotton against imidacloprid-induced root growth inhibition; shoot length of cotton ([4]; PESA salt 10 mg/liter alone): 6.2 cm; root length of cotton ([4]; PESA salt 10 mg/liter alone): 14.6 cm; shoot length of cotton ([4]; PESA salt 30 mg/liter alone): 6.0 cm; root length of cotton ([4]; PESA salt 30 mg/liter alone): 16.9 cm; shoot length of cotton ([4]; PESA salt 100 mg/liter alone): 6.0 cm; root length of cotton ([4]; PESA salt 100 mg/liter alone): 16.5 cm; shoot length of cotton ([4]; PESA salt 300 mg/liter alone): 5.7 cm; root length of cotton ([4]; PESA salt 300 mg/liter alone): 11.9 cm; average plant height of soybean [5, 8]: 23.8 inches; average plant height of soybean [5, 9]: 23.5 inches; average plant height of soybean [5, 10]: 23.2 inches; safening of soybean ([5]; conclusion from Table 9): safened soybean against clothianidin-induced root growth inhibition; root dry weight of a sample of 10 sorghum plants [6, 8]: 183.5 grams; root dry weight of a sample of 10 sorghum plants [6, 9]: 146.5 grams; root dry weight of a sample of 10 sorghum plants [6, 10]: 141.6 grams; safening of sorghum ([6]; conclusion from Table 10): safened sorghum against clothianidin-induced root growth inhibition; vigor rating of maize plants, Vigor (1-5) ([7]; PESA sodium salt 22 g/100 kg seed alone): 3.8; vigor rating of maize plants, Vigor (1-5) ([7]; PESA sodium salt 55 g/100 kg seed alone): 3.5; vigor rating of maize plants, Vigor (1-5) ([7]; PESA sodium salt 137.5 g/100 kg seed alone): 3.4
